Reference: patent publication US4057530A, “2-Phenyl-indole derivatives and process for preparing the same” (priority 1974, dated 1977)
Values joined by “and” are separate entries in the source; they are usually repeats but may differ in a detail not shown here. Equal values may be shown once. “Also recorded” adds a separate entry of the source.

Tests used:
[1] = Acute toxicity by oral route in mice (LD50); assay type: in vivo; settings: mouse, in vivo, gummy suspension
Description: (§1) The study of the acute toxicity of the stabilizers listed below was carried out by determining the dose of substance which provoked the death of 50% of the treated animals (LD50). A gummy suspension of the substance under study was administered by oral route to groups of at least ten mice and the following results were observed: […]

[2] = system: mice; test: Acute toxicity by oral route in mice (LD50); assay type: in vivo; settings: LD50 study
Description: as §1

[3] = Static thermostability of stabilized resin, GARDNER Scale Comparator, Compound B; settings: 210° C
Description: (§2) The stabilizing power of the substances of the invention was studied from two points of view:
(§3) These studies were performed with six different formulae of vinyl resins (hereinafter referred to as Compounds).
(§4) The different compounds were mixed and calendered in a mixer of which the cylinders were heated to 160° C. The rigid sheets so obtained were then heated in an oven to a temperature between 180° C and 215° C, until incipient carbonization.
(§5) A stove with rotating drums, ventilated and equipped with a thermostat was used for this operation. In the trials described hereunder, the behaviour of a sheet containing the stabilizer to be tested was compared to that of a sheet of the same formula but containing 2-phenyl-indole as stabilizer.
(§6) 1. The colouration of the sheets, of which samples were removed from the stove at fixed intervals was compared to a standard scale of colouration, known as the GARDNER Scale, and expressed in terms of the reference figures of the GARDNER Scale.
(§7) Comparisons were made with a GARDNER Scale Comparator which contains 18 filters of coloured glass and which offers the possibility of observing by transparency and in a limited field of view both the sheet and the reference filters.
Compound B was used and the sheets obtained presented the following characteristics: […]

[4] = Static thermostability of stabilized resin, GARDNER Scale Comparator, Compound A; settings: 185° C
Description: as §2, §3, §4, §5, §6, §7

[5] = Static thermostability of stabilized resin, simplified method (GARDNER sub-scale), Compound A; settings: 210° C
Description: as §2, §3, §4, §5
(§8) 2. It is also possible to use a simplified method which is more rapid and with which valid results are also obtained: a reference scale is drawn up with sheets of thermally treated polyvinyl chloride, of which the colourations have been definitely determined in GARDNER degrees as above. A GARDNER sub-scale is thus obtained in polyvinyl chloride sheets which can be directly compared to the sheets to be tested without using the comparator.
Finally, trials were carried out with Stabilizers 15, 16 and 17 and with 2-phenyl-indole. Compound A was used and the temperature was 210° C.

[6] = Static thermostability of stabilized resin, simplified method (GARDNER sub-scale), Compound D; settings: 185° C
Description: as §2, §3, §4, §5, §8

[7] = Static thermostability of stabilized resin, simplified method (GARDNER sub-scale), Compound E; settings: 185° C
Description: as §2, §3, §4, §5, §8

[8] = Static thermostability of stabilized resin, simplified method (GARDNER sub-scale), Compound C; settings: 210° C
Description: as §2, §3, §4, §5, §8

[9] = Sticking of the stabilized material; settings: cylinders at 210° C, 3 min mixing / 3 min rest
Description: Compounds Nos. 609 and 675 were placed in a mixer of the type previously used for studying static thermostability with cylinders at a fixed temperature of 210° C.
They were submitted to alternate periods of 3 minutes of mixing and 3 minutes of rest.

[10] = Sublimation of the stabilizers; assay type: physicochemical; settings: 120° C, cold wall 13° C, 15 Torr, 150 min
Text: A sample of the substance to be tested was introduced into a test tube and heated under reduced pressure. The fraction of sublimated substance was recovered on a mobile cold wall.
After a certain period of time, the sublimated substance was weighed and the result expressed as a percentage of the weight of the starting-material.
The results obtained can only be of relative value, enabling a comparison to be made between two products tested under the same conditions.
Operating conditions (chosen at random).
Temperature of heating 120° C
Temperature of the cold wall
Duration of heating 150 minutes

[11] = assay type: physicochemical
Text: The thermostability of Stabilizer 8 and that of 2-phenyl-indole were studied by differential thermoanalysis and by thermogravimetric analysis. […] Diagrams were made out for 2-phenyl-indole (i) and Compound 8 (ii) and enabled the following conclusions to be drawn: […]

[12] = Thermostability of the stabilizers: thermogravimetric analysis; assay type: physicochemical; settings: 80° C/hour, under air
Description: The thermostability of Stabilizer 8 and that of 2-phenyl-indole were studied by differential thermoanalysis and by thermogravimetric analysis.
This analysis necessitated two series of trials carried out under air and under inert gas (Argon) in order to eliminate any possible effect of oxygen. The results obtained were identical.
The temperature increase rate was 80° C/hour. Thermograms were drawn up under air for both 2-phenyl-indole (i) and for Stabilizer 8 (ii) and enabled the following conclusion to be drawn: […]

## c1ccc(-c2cc3ccccc3[nH]2)cc1 [2-phenyl-indole]
[1]
  LD50: > 3000 mg/kg
[2]
  Toxic symptoms: none
[3]; 0 min
  Colouration of sheet (GARDNER Scale): 1 GARDNER degrees
[3]; 3 min
  Colouration of sheet (GARDNER Scale): 1 GARDNER degrees
[3]; 6 min
  Colouration of sheet (GARDNER Scale): 2 GARDNER degrees
[3]; 9 min
  Colouration of sheet (GARDNER Scale): 3 GARDNER degrees
[3]; 12 min
  Colouration of sheet (GARDNER Scale): 4 GARDNER degrees
[3]; 15 min
  Colouration of sheet (GARDNER Scale): 6 GARDNER degrees
[3]; 18 min
  Colouration of sheet (GARDNER Scale): 8 GARDNER degrees
[3]; 21 min
  Colouration of sheet (GARDNER Scale): > 18 GARDNER degrees
[3]; after 21 min
  Thickness of sheet: 0.9 mm
[3]; after 24 min
  State of sheet: burnt
[4]; 0 min
  Colouration of sheet (GARDNER Scale): 1 GARDNER degrees
[4]; 6 min
  Colouration of sheet (GARDNER Scale): 1 GARDNER degrees
[4]; 12 min
  Colouration of sheet (GARDNER Scale): 3 GARDNER degrees
[4]; 18 min
  Colouration of sheet (GARDNER Scale): 5 GARDNER degrees
[4]; 24 min
  Colouration of sheet (GARDNER Scale): 11 GARDNER degrees
[4]; 30 min
  Colouration of sheet (GARDNER Scale): 12 GARDNER degrees
[4]; 36 min
  Colouration of sheet (GARDNER Scale): 14 GARDNER degrees
[4]; 42 min
  Colouration of sheet (GARDNER Scale): 14 GARDNER degrees
[4]; 48 min
  Colouration of sheet (GARDNER Scale): 14 GARDNER degrees
[4]; 54 min
  Colouration of sheet (GARDNER Scale): burnt
[5]; 0 min
  Colouration of sheet (GARDNER sub-scale): 1 GARDNER degrees
[5]; 3 min
  Colouration of sheet (GARDNER sub-scale): 2 GARDNER degrees and 1 GARDNER degrees
[5]; 3 min, listed as 2-phenyl-inodle
  Colouration of sheet (GARDNER sub-scale): 2 GARDNER degrees
[5]; 6 min
  Colouration of sheet (GARDNER sub-scale): 2.5 GARDNER degrees and 2 GARDNER degrees and 3 GARDNER degrees
[5]; 6 min, listed as 2-phenyl-inodle
  Colouration of sheet (GARDNER sub-scale): 3 GARDNER degrees
[5]; 9 min, listed as 2-phenyl-inodle
  Colouration of sheet (GARDNER sub-scale): 8 GARDNER degrees
[5]; 12 min
  Colouration of sheet (GARDNER sub-scale): 11 GARDNER degrees and 10 GARDNER degrees and 9 GARDNER degrees
[5]; 12 min, listed as 2-phenyl-inodle
  Colouration of sheet (GARDNER sub-scale): 11 GARDNER degrees
[5]; 15 min
  Colouration of sheet (GARDNER sub-scale): 13 GARDNER degrees and 12 GARDNER degrees and 14 GARDNER degrees
[5]; 15 min, listed as 2-phenyl-inodle
  Colouration of sheet (GARDNER sub-scale): 12 GARDNER degrees
[5]; 18 min
  Colouration of sheet (GARDNER sub-scale): burnt
[5]; at 15 min
  Burning of sheet: burnt along its edges; also recorded: badly burnt
[6]; 0 min
  Colouration of sheet (GARDNER sub-scale): 1 GARDNER degrees
[6]; 10 min
  Colouration of sheet (GARDNER sub-scale): 2 GARDNER degrees
[6]; 20 min
  Colouration of sheet (GARDNER sub-scale): > 2 GARDNER degrees
[6]; 30 min
  Colouration of sheet (GARDNER sub-scale): 3 GARDNER degrees
[7]; 0 min
  Colouration of sheet (GARDNER sub-scale): < 1 GARDNER degrees
[7]; 10 min
  Colouration of sheet (GARDNER sub-scale): 1 GARDNER degrees
[7]; 20 min
  Colouration of sheet (GARDNER sub-scale): 2 GARDNER degrees
[7]; 30 min
  Colouration of sheet (GARDNER sub-scale): 3 GARDNER degrees
[8]; 0 min
  Colouration of sheet (GARDNER sub-scale): 1 GARDNER degrees
[8]; 10 min
  Colouration of sheet (GARDNER sub-scale): 1.5 GARDNER degrees
[8]; 20 min
  Colouration of sheet (GARDNER sub-scale): 2 GARDNER degrees
[8]; 30 min
  Colouration of sheet (GARDNER sub-scale): < 3 GARDNER degrees
[8]; 40 min
  Colouration of sheet (GARDNER sub-scale): 3 GARDNER degrees
[8]; 50 min
  Colouration of sheet (GARDNER sub-scale): > 3 GARDNER degrees
[8]; 55 min
  Colouration of sheet (GARDNER sub-scale): 3.5 GARDNER degrees
[8]; 60 min
  Colouration of sheet (GARDNER sub-scale): > 4 GARDNER degrees
[9]
  Sticking of the stabilized material: comparable
[10]
  Percentage of sublimated substance: 26.9%
[11]
  Temperature from which it particularly sublimates (melting point): 185-190 °C
[11]; 2° C/minute
  Loss of water at 100° C: no loss of water at 100 °C
  Sublimation temperature: 140 °C
[12]
  Decomposition residue at 210° C: a yellowish residue was, in fact, obtained at 210 °C which constitutes proof of decomposition
